Some results are limits rather than exact numbers.

Here are results for 16 molecules from article PMC10648204, “Discovery of Novel Biphenyl Carboxylic Acid Derivatives as Potent URAT1 Inhibitors” (Molecules, 2023).

In data set [1] the test system is URAT1. The following applies: general statement in the introduction; cited from earlier work.
Data set [2] has as its target T1, human URAT1 (Homo sapiens, UniProt Q96S37).
T1 construct: expressed in transfected cells; host or cells: HEK293T cells (ATCC CRL-11268)
T1 sequence (Q96S37 1-553): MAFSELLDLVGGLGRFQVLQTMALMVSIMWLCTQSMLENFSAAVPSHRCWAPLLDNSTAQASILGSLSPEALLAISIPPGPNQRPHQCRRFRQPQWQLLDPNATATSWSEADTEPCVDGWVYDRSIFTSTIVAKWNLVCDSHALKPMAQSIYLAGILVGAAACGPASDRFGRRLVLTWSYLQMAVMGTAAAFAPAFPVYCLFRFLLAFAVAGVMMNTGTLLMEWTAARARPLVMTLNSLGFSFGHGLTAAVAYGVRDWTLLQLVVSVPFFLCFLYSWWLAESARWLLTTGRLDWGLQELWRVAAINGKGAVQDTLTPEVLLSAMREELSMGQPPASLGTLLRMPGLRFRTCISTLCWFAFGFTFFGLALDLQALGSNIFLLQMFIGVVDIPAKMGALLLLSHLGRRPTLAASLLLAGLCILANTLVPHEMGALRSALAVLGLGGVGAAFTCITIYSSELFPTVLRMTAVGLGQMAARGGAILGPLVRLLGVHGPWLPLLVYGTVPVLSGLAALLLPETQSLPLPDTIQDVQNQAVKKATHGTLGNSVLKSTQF
Kind of data set: In vitro URAT1 inhibitory assay (14C-uric acid uptake in HEK293T cells expressing human URAT1). Type of data set: cell-based. The following applies: HEK293-URAT1 cells, 14C-labeled uric acid substrate; for inhibition at 10 µM: HEK-293T, 10 μM compound, mean of three measurements. As to the method: All the target compounds were evaluated for their URAT1 inhibitory activities in HEK293-URAT1 cells using ^14C-labeled uric acid as the substrate. […] The SAR exploration on series A compounds mainly focused on the hydrophobic component. […] For series B compounds, the ortho-substituted biphenyl carboxylic acid was initially kept, and various aromatic components were incorporated (B1–B25). […] Different substituents were introduced onto the 4-pyridyl (B15–B21).
In Vitro URAT1 Inhibitory Assay. A transient expression system of human URAT1 in HEK293T cells was constructed to measure ^14C-uric acid transport. […] The cell cryovials were removed from liquid nitrogen storage, and immediately placed on dry ice prior to thawing. […] The cell suspension was transferred into a 15 mL centrifuge tube, and 10 mL complete medium (DMEM +10% FBS +500 μg/mL G418 +1% P/S) was added. After centrifugation at 1000 rpm for 5 min, the supernatant was discarded, and cell precipitation was resuspended in 5 mL complete medium and transferred to a T75 culture flask. […] The uptake assay test could be carried out after cell culture adherent to the well in the 96-well plate. Then, the cells were washed with 200 µL/well of pre-warmed Cl^- free HBSS buffer, and all buffer was removed at the last washing. 50 µL/well of Cl^- free HBSS Buffer containing Uric acid [8-^14C] (2.5 μCi/mL) and samples were added to the cells, and incubated for 8 min. Then, the cells were washed three times with Cl^- free HBSS Buffer and all buffer was removed at the last washing. 50 µL/well of lysis buffer (100 mM NaOH) was added to the lysate cells and stirred at 900 rpm for 5 min. 150 µL/well MicroScint™-40 cocktail was added and agitated at 900 rpm for 5 min. Finally, the 96-plate was counted in a MicroBeta2 (PerkinElmer). The data were analyzed and IC50 values was calculated with GraphPad Prism 6 software.

With `CCc1oc2ccccc2c1C(=O)c1cc(Br)c(O)c(Br)c1` [Benz, benzbromarone], in data set [1], the “IC50 (URAT1 inhibitor potency level, in words)” value is on record as “submicromolar level”.

As to `O=C(O)c1ccccc1-c1ccccc1-c1nnc(-c2ccncc2)o1` [Compound B30], the melting point – broadly, the temperature, or range, at which the solid turns liquid – was in the range of 237 to 239 °C. Further, the inhibition – broadly, the share of the control response that was lost under treatment – at 10 µM in data set [2] was 33%.

In turn, `O=C(O)c1ccc(-c2ccccc2-c2nc(-c3ccncc3)no2)cc1` [Compound B29] gave a melting point of 258 to 260 °C. Testing at 10 µM in data set [2] gave an inhibition of 18%.

The molecule `CN(C(=O)c1ccccc1-c1ccccc1C(=O)O)c1ccccc1` [Compound A16] displayed a melting point of 169 to 172 °C. The molecule also gave an inhibition at 10 µM in data set [2] of 13%.

Turning to `Cc1cc(-c2noc(-c3ccccc3-c3ccccc3C(=O)O)n2)cc(C)n1` [Compound B20], the melting point is 214 to 216 °C. Moreover, in data set [2], the IC50 – broadly, the concentration that inhibits the measured activity by half – amounted to 3100 nM and 10 µM produced 76% inhibition.

`O=C(O)c1ccccc1-c1ccccc1-c1nc(-c2cnc3ccccc3c2)no1` [Compound B23] showed a melting point of 236 to 238 °C. Moreover, in data set [2], inhibition was half-maximal at 6100 nM (IC50) and the inhibition at 10 µM was found to be 74%.

As to `O=C(O)c1ccccc1-c1ccccc1C(=O)N1CCCc2c(Br)cccc21` [Compound A8], the melting point was 201 to 202 °C. For the same molecule, in data set [2], inhibition was half-maximal at 1600 nM (IC50) and the inhibition at 10 µM turned out to be 90%.

With `O=C(O)CSc1nnc(Br)n1-c1ccc(C2CC2)c2ccccc12` [Lesinurad], the “IC50 (URAT1 inhibitor potency level, in words)” value in data set [1] is on record as “micromolar level”.

Take `O=C(O)c1ccccc1-c1ccccc1-c1nc(-c2ccnc(F)c2)no1` [Compound B17]: the melting point is 98 to 100 °C. In data set [2], inhibition was half-maximal at 980 nM (IC50) and testing at 10 µM gave an inhibition of 90%.

In turn, `Cc1cc(-c2noc(-c3ccccc3-c3ccccc3C(=O)O)n2)ccn1` [Compound B18] gave a melting point of 228 to 230 °C. In data set [2], this molecule showed an IC50 of 280 nM and an inhibition at 10 µM of 97%.

In turn, `O=C(O)c1ccccc1-c1ccccc1-c1nc(-c2cccnc2)no1` [Compound B13] returned a melting point of 210 to 212 °C. The inhibition at 10 µM in data set [2] was 64%.

`O=C(O)c1ccccc1-c1ccccc1-c1nc(-c2ccc(C(F)(F)F)cc2)no1` [Compound B2]: the melting point was in the range of 173 to 175 °C. The molecule also had an inhibition at 10 µM in data set [2] of 39%.

Turning to `O=C(O)c1ccccc1-c1cccc(C(=O)N2CCCc3ccccc32)c1` [Compound A21], the melting point is 100 to 102 °C. Besides, in data set [2], the inhibition at 10 µM was below 10%.

In the case of `Cc1ccc(-c2noc(-c3ccccc3-c3ccccc3C(=O)O)n2)cc1` [Compound B6], the melting point lay in the range of 151 to 153 °C. This molecule also showed an inhibition at 10 µM in data set [2] of 45%.

`O=C(O)c1ccccc1-c1ccccc1C(=O)N1CCCc2cc(Br)ccc21` [Compound A7]: the melting point fell in the range of 261 to 262 °C. Moreover, in data set [2], half-maximal inhibition (IC50) was put at 1100 nM and testing at 10 µM gave an inhibition of 94%.

`O=C(O)c1ccccc1-c1ccccc1C(=O)N1CCCc2ccc(Br)cc21` [Compound A6] registered a melting point of 231 to 233 °C. In data set [2], this molecule yielded an IC50 of 1100 nM and an inhibition at 10 µM of 84%.
